Reference: a melting point compilation (Tetko et al.; mined from patent text by program, amines drawn as free bases though some values may be those of a salt)

Row | melting point | SMILES
1 | 250 to 252 °C | O=C1c2[nH]c3cc(O)ccc3c2CC1CC1CCN(Cc2ccccc2)CC1 (configuration not stated)
2 | 73 to 75 °C | Cc1ccc(NCc2ccc(N(C)C)cc2)cc1C
3 | 168 °C | CC(=O)Nc1ccc(Sc2c([N+](=O)[O-])cc(C(=O)O)cc2S(N)(=O)=O)cc1
4 | 186 to 187 °C | NS(=O)(=O)c1ccc(-c2c(-c3ccccc3)noc2Cl)cc1
5 | > 340 °C | N=C(N)c1ccc(N2CCN(c3ccc(OCC(=O)O)cc3)CC2)cc1
6 | 262 to 264 °C | CC1CN(C2=NC(=O)C(=Cc3cccc(-c4cc(F)c(O)c(C56CC7CC(CC(C7)C5)C6)c4)c3)S2)CC(C)O1 (configuration not stated)
7 | 95 to 96 °C | C#CCNc1nc(NCC=C)nc2c(C)csc12
8 | 50 °C | COC(=O)CCCOc1ccc(CNC(=O)C2Cc3ccccc3N2S(=O)(=O)c2ccc(-c3cccc(C(F)(F)F)c3)cc2)cc1 (configuration not stated)
9 | 83 to 84 °C | COc1ccc(-c2nc(SCCO)sc2-c2ccc(OC)cc2)cc1
10 | 182 to 188 °C | O=C(N1CCc2cc(O)c(O)cc2C(c2ccccc2)C1)C(F)(F)F (configuration not stated)
11 | 64 to 65 °C | O=S(=O)(c1ccccc1)n1cc(CCOC2OC(CO)CC(O)C2O)c2ccccc21 (configuration not stated)
12 | 127 to 130 °C | CCCCNC(=O)c1cnc2ccccn2c1=O
13 | 157 °C | CN1C(c2nnc(C3CCCCC3)o2)=C(OC(=O)c2ccccc2)c2ccccc2S1(=O)=O
14 | 216 to 218 °C | CCOc1ccc(C(=O)N2CCc3cc(S(=O)(=O)N4CC(c5ccccc5)NC4=O)ccc32)cc1 (configuration not stated)
15 | 146 to 148 °C | CC(=O)c1ccc(S(N)(=O)=O)c(Cl)c1
16 | 173 to 175 °C | O=C1c2ccccc2-c2c1c1ccccc1c(=O)n2CCCO
17 | 156 to 159 °C | Cn1ccnc1S(=O)(=O)c1ccccc1Cl
18 | 37 to 38 °C | CC1Cc2ccccc2N1N (configuration not stated)
19 | 98 °C | CCN(CC)C(=O)n1cnc(S(=O)(=O)c2cc(F)c(C#N)cc2F)n1
20 | 78 to 79 °C | COc1ccc(SC2CC(=O)N2CC(=O)O)cc1 (configuration not stated)
21 | 145 to 147 °C | O=[N+]([O-])c1cc(Cl)c(Oc2ccc(Cl)c3ccccc23)c(Cl)c1
22 | 54 to 56 °C | COC[C@H]1CN(c2ccc([C@H]3CC[C@H](OCSC)CC3)cc2)C(=O)O1
23 | 206 to 208 °C | CC(=O)c1ccc(OCCCOc2cccc(NC(=O)c3nnn[nH]3)c2C#N)c(CCC(F)(F)F)c1O
24 | 340 to 343 °C | O=C(O)c1ccc2c(c1)S(=O)(=O)c1ccccc1S2=O (configuration not stated)
25 | 109 °C | CC(C)N1C(=O)C(=O)N(c2cc(Cl)cc(Cl)c2)S1=O (configuration not stated)

Row | melting point | SMILES
26 | 162 to 163 °C | NCCCCCCCCCCCCCCCCCC(=O)O
27 | 188 to 191 °C | COc1ccc(OC)c2c1C=CNC(=O)C2
28 | 125 to 128 °C | CC(C)COc1ccccc1C(N)=O
29 | 125 to 128 °C | CS(=O)(=O)Nc1cc(C(=O)C=O)ccc1OCc1ccccc1
30 | 84 to 87 °C | O=P(O)(CCc1ccccc1)CCc1ccccc1
31 | 88 to 91 °C | COc1ccc(CC[C@H]2CN(Cc3ccccc3)CCN2Cc2ccccc2)cc1
32 | 127 °C | CC(=O)Oc1ccc(NC(=O)c2ccc(C3OCC(SC(C)C(O)(Cn4cncn4)c4ccc(F)cc4F)CO3)cc2)cc1 (configuration not stated)
33 | 106 to 108 °C | CC(C(=O)O)c1ccc(Oc2ccccc2F)cc1 (configuration not stated)
34 | 150 to 152 °C | CC(=O)Nc1cc(C(=O)CCCCCl)cc2c1OCC2
35 | 194 to 195 °C | O=C(O)CCc1oc(-n2ccnc2)nc1-c1ccc(Cl)cc1
36 | 100 to 103 °C | CN(C(=S)c1ccccn1)c1cccc(F)c1
37 | 172 to 178 °C | Cc1ccc(C)c2c1Cc1c(O)cccc1C2=O
38 | 175 to 178 °C | CN(C)C=C1C[N+]([O-])=C(c2ccccc2F)c2cc(Cl)ccc2C1=O
39 | 178 to 185 °C | CC(=O)CC(=S)N1N=C(c2ccc([N+](=O)[O-])cc2)c2cc3c(cc2CC1C)OCO3 (configuration not stated)
40 | 59 to 60 °C | O=[N+]([O-])CCc1ccc2ccccc2c1
41 | 206 to 208 °C | COc1cc(NC(C)=O)c(Cl)cc1C(=O)[NH+]([O-])C1CCN(CC2CCCCC2)CC1 (configuration not stated)
42 | 80 to 82 °C | COc1ccc2c(c1)CC[C@@H](Br)[C@@H]2O (relative stereo)
43 | 82 to 83 °C | CC(C)c1ccc2c(c1)C(Cl)Cc1ccc(F)cc1S2 (configuration not stated)
44 | 159 to 160 °C | Cc1cccc(COc2cccc(OCc3coc(-c4ccc(F)cc4)n3)c2)c1C(=O)O
45 | 213 °C | NC1=C(c2ccc(O)cc2)C(=O)c2ccc(O)cc21
46 | 62 °C | OC[C@@](O)(Cc1ccccc1)c1ccccc1
47 | 284 to 286 °C | c1ccc(C(CCN2CC3CCC(CC3)C2)(c2ccccc2)c2nnn[nH]2)cc1
48 | 87.5 to 88.5 °C | Cn1nnnc1SCCCSc1ncccc1O
49 | 220 to 221 °C | O=C(O)c1ccccc1Oc1cc(Cl)c(Cl)cc1NS(=O)(=O)c1ccc(Cl)cc1
50 | 110 to 112 °C | O=C(Nc1cccc(-c2ccc(C(=O)O)cc2)c1)OCC1c2ccccc2-c2ccccc21

Row | melting point | SMILES
51 | 74 to 75 °C | Cc1cccc(C)c1N1CC(C)N(c2c(C)cccc2C)C1=NC(=O)OCc1ccccc1 (configuration not stated)
52 | 228 to 230 °C | COc1cc2nc(N3CCc4c(CN5CCOCC5)cccc4C3)[nH]c(=O)c2cc1OC
53 | 131 to 132 °C | Oc1cccc(C#Cc2ccc(C(F)(F)F)cc2)c1
54 | 116 to 118 °C | C=CCN1CCc2c(sc(N)c2C(=O)c2ccc(Br)cc2)C1
55 | 106 to 108 °C | O=C1C=CC(O)(c2cc3ccccc3o2)C=C1
56 | 108 to 110 °C | CC(C)COc1ccc2c(c1)N(C)C(=O)N(c1ccc(Cl)cc1)S2(=O)=O
57 | 135 to 136 °C | CS(=O)(=O)NC1CCN(Cc2ccccc2)CC1
58 | 191 to 194 °C | CN(CCO)CCn1nc2c3c(c(NCCNCCO)ccc31)C(=O)c1c(O)ccc(O)c1-2
59 | 135 to 136 °C | CCN(c1ccc([N+](=O)[O-])cc1C#N)S(=O)(=O)c1ccc(C)cc1
60 | 60 to 64 °C | C=Cc1cc(-c2cccnc2)no1
61 | 68 to 70 °C | O=c1c2c(oc3ccccc13)C=C2
62 | 155 to 157 °C | COc1ccccc1C(=O)NC1CCCn2c1nc(-c1ccncc1)cc2=O (racemic)
63 | 192 to 194 °C | O=C(Nc1ccc(Cl)cn1)c1cc(Cl)ccc1NCC1CCN(C2CCOCC2)CC1
64 | 149 to 150 °C | CCOC(=O)C(C)(C)Oc1ccc(-c2ccc(CCNC(=O)c3ccc(OC)cc3)cc2)cc1
65 | 91.5 to 93 °C | [N-]=[N+]=NC[C@H]1CN(c2ccc(N3CCSCC3)c(F)c2)C(=O)O1
66 | 130 °C | CCOc1ccc2c(c1)C(C)(c1cc(C(=O)N3CC4CCN(C)C4C3)ccc1Cl)C(=O)N2S(=O)(=O)c1ccc(C(=O)NC(C)(C)C)cc1OC (configuration not stated)
67 | 156 to 157 °C | CCOCCOC(=O)C(=O)Nc1nc(-c2cc3ccccc3oc2=O)cs1
68 | 120 to 122 °C | CCC(CC)Oc1cc(C)nc(Nc2c(C)cc(C)cc2C)c1C(=O)n1ccnc1
69 | 153 °C | CCCCCc1ccc(CCc2ccc(-c3ccc(Cl)c(F)c3)cc2)cc1
70 | 163 to 165 °C | COc1cccc2c1C(=O)C(c1c(Cl)cccc1Cl)C2=O (configuration not stated)
71 | 158 to 160 °C | COc1ccc(-n2nc(Sc3ccc(C)c(C)c3)c(C)c(C#N)c2=O)cc1
72 | 277 to 286 °C | Cn1c(=O)c(=O)[nH]c2ccccc21
73 | 44 to 47 °C | CCCCCCCCn1sc(Cl)c(Cl)c1=O
74 | 61 to 62 °C | COC(=O)c1cc(S)cc(S)c1
75 | 83 to 84 °C | O=C1N[C@H](Cc2ccc(C(F)(F)F)cc2)[C@@H](c2ccc(F)cc2)O1 (racemic)

Row | melting point | SMILES
76 | 274 to 276 °C | CCOC(=O)c1c(-c2ccncc2)[nH]c(-c2ccncc2)c1-c1ccc([N+](=O)[O-])cc1
77 | > 260 °C | CC(=O)Nc1ccc(-c2ccc(C(=O)O)c(=O)[nH]2)cc1
78 | 125 to 130 °C | COCCc1nc2c(N)nc3ccccc3c2n1CC(C)(C)CN(C(N)=O)c1ccccc1
79 | 155 to 158 °C | Cn1nc(-c2ccc(F)cc2)c(-c2ccncc2)c1N
80 | 107 to 120 °C | CN(C(=O)N1Cc2nc(C(O)c3ccccc3)n(Cc3ccccc3)c2CC1CO)c1ccccc1 (configuration not stated)
81 | 212 to 213 °C | Cc1ncc2cc(-c3c(Cl)cccc3Cl)c(NS(C)(=O)=O)nc2n1
82 | 142 to 143 °C | NS(=O)(=O)c1ccc(-c2cc(F)c(F)cc2-c2ccc3c(c2)OCO3)cc1
83 | 142 to 145 °C | NCCN1C(=O)CN(c2ccc(Cl)cc2)C1=O
84 | 61 to 62 °C | CCOC(=O)Nc1cc(F)cc(CCCCC(=O)OC)c1
85 | 103 °C | CCOC(=O)c1c(Cl)c2cc(C)ccc2n(Cc2ccccc2)c1=O
86 | 169 to 171 °C | COCCCCCCCCCCCC(=O)Nc1cccc(C(=O)O)c1
87 | 137 to 138 °C | O=[N+]([O-])c1ccc2c(c1)COC(c1ccccc1F)O2 (configuration not stated)
88 | 76 to 77 °C | NC(=O)CCCN(Cc1ccccc1)Cc1ccccc1
89 | 224 °C | Clc1cc(N2CCC(N3CCN(c4cccc5[nH]ccc45)CC3)CC2)c2ncccc2c1
90 | 248 °C | CC1SC(=O)NN=C1c1ccc2c(c1)C(C)(C)C(=O)N2C(=O)Oc1ccccc1 (configuration not stated)
91 | 155 °C | O=C1CCc2cc(Cl)c(Cl)cc21
92 | 151 to 153 °C | COc1cc(CO)nnc1OC
93 | 82 to 83 °C | CCOC(=O)c1cnc(SC)nc1NCc1ccc(OC)c(Cl)c1
94 | 250 °C | O=C1Nc2c(Br)cncc2C1(Br)Br
95 | 141 to 144 °C | CC1=NN=C(C=Cc2ccc(F)cc2)c2cc3c(cc2C1)OCO3
96 | 96 to 98 °C | CCOP(=O)(OCC)C1(P(=O)(OCC)OCC)CC(C(=O)CC)=NN1
97 | 91 to 93 °C | O=C1CCC(=O)N1CCc1ccc(OC(F)(F)F)cc1
98 | 172 to 173 °C | COc1ccc2c(c1)c(CC(=O)OCC(=O)O)c(C)n2C(=O)c1ccccc1F

Row | SMILES | melting point
99 | C=CCn1c(=O)n(CCCN2CCC3(CC2)C(=O)NCN3c2ccccc2)c2ccccc21 | 198 °C
100 | CCS(=O)c1c(C#N)nn(-c2c(Cl)cc(C(F)(F)F)cc2Cl)c1N (configuration not stated) | 173 to 174 °C
101 | CCOc1cc2c(cc1OCC)C1CC(=O)C(CC)CN1CC2 (configuration not stated) | 115 to 118 °C
102 | COC(=O)C(O)(c1cc(F)cc(F)c1)c1cc(F)cc(F)c1 | 113 to 114 °C
